Assay results published in BindingDB's records for patent US20250282798 (Medshine Discovery, 2025).
pIC50: −log10 of the molar value.

Target: Mitogen-activated protein kinase kinase kinase kinase 1 (Homo sapiens, UniProt Q92918)
Experiment: Kinase Activity Assay
Protocol: The compound was diluted 50-fold into the kinase reaction buffer, and the mixture was shaken on a shaker for 20 minutes. The kinase was prepared with the enzyme reaction buffer. 2 μL of kinase was added to each well of a reaction plate. 1 μL of the diluted compound in the buffer was added to each well. The plate was sealed with a sealing film, centrifuged at 1000 g for 30 seconds, and placed at room temperature for 10 minutes. The mixed solution of ATP/MBP was prepared with the enzyme reaction buffer. 2 μL of the mixed solution of ATP/MBP was added to the reaction plate. The plate was sealed with a sealing film, and centrifuged at 1000 g for 30 seconds. The mixture in the plate was reacted at room temperature for 60 minutes. […] The plate was incubated at 25° C. for 40 min. […] The plate was incubated at 25° C. for 40 min. The RLU (relative luminescence unit) signal was read with a BMG microplate reader, and the signal intensity was used to characterize the activity of the kinase.

Chain of Mitogen-activated protein kinase kinase kinase kinase 1 (Q92918 whole entry): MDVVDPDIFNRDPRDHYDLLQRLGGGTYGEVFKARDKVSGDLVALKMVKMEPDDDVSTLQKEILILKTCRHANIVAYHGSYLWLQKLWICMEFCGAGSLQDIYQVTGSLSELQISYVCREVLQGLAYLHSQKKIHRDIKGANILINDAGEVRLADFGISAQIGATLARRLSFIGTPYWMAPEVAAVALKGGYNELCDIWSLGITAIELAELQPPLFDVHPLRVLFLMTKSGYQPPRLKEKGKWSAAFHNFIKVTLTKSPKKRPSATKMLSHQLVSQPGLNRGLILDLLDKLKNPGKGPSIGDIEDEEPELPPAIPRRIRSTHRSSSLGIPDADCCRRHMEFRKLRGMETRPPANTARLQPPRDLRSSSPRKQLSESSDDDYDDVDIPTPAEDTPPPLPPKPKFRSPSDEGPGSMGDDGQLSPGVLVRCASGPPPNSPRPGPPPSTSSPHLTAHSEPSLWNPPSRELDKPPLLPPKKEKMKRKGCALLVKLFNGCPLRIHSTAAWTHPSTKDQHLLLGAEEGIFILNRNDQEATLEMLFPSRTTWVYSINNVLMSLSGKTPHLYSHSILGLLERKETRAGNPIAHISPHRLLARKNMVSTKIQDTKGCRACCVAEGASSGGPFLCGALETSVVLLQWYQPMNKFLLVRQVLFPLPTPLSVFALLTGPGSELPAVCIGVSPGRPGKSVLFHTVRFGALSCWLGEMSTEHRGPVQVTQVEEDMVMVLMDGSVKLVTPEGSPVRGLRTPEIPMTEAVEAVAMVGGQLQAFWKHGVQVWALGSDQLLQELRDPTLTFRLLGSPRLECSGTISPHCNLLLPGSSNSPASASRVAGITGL

Compound	pIC50
COc1cccc(F)c1-c1ccc(Nc2ccc(N3CCOCC3)c(CN(C)C)n2)c2c1CNC2=O [US20250282798, Compound 15]	8.77
CN1Cc2nc(Nc3ccc(-c4cnc5cc(F)ccn45)c4c3C(=O)NC4)ccc2N2CCOCC2C1 (configuration not stated) [US20250282798, Compound 16]	9.10
CN1Cc2nc(Nc3ccc(-c4cnc5cc(F)ccn45)c4c3C(=O)NC4)ccc2C2COCC2C1 (configuration not stated) [US20250282798, Compound 17]	8.89
Cn1ccc2c(-c3ncc(Nc4ccc5c(n4)OC[C@H]4COCCN54)c4c3CNC4=O)ccnc21 [US20250282798, Compound 20]	9.52

Other lines, results leading:

pIC50	Compound
9.70	O=C1NCc2c(-c3cnc4cc(F)ccn34)ccc(Nc3ccc4c(n3)CNC(=O)C3COCC43)c21 (configuration not stated) [US20250282798, Compound 18]
10.70	Cn1ccc2c(-c3ccc(Nc4ccc5c(n4)CNC(=O)C4COCC54)c4c3CNC4=O)ccnc21 (configuration not stated) [US20250282798, Compound 23]
9.70	CN1Cc2nc(Nc3ccc(-c4ccnc5c4ccn5C)c4c3C(=O)NC4)ccc2N2CCOCC2C1 (configuration not stated) [US20250282798, Compound 25]
